Data from patent US7138361B2, “Herbicidal heterocycles” (E. I. du Pont de Nemours and Company, priority 2000, dated 2006).

What was measured:
Assay type in all cases: in vivo
[1] = tested on: Surinam grass (Brachiaria decumbens); assay: Test B postemergence
In short: (§1)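 Seeds were planted and sprayed preemergence with test chemical in a non-phytotoxic solvent mixture containing surfactant; postemergence plants (2 to 18 cm, 1- to 4-leaf stage) received the same formulation. Greenhouse hold 13 to 15 days, then visual rating versus untreated controls on a 0–100 scale (0 no effect, 100 complete control).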

[2] = tested on: barnyardgrass (Echinochloa crus-galli); assay: Test B postemergence
In short: as §1

[3] = tested on: blackgrass (Alopecurus myosuroides); assay: Test B postemergence
In short: as §1

[4] = tested on: cocklebur (Xanthium strumarium); assay: Test B postemergence
In short: as §1

corn (Zea mays) [5] = assay: Test B postemergence
In short: as §1

[6] = tested on: crabgrass (Digitaria sanguinalis); assay: Test B postemergence; details: Rate 125 g/ha, scale 0 to 100, 0 no effect, 100 complete control
In short: as §1

[7] = tested on: giant foxtail (Setaria faberii); assay: Test B postemergence; details: Rate 125 g/ha, scale 0 to 100, 0 no effect, 100 complete control
In short: as §1

[8] = tested on: lambsquarters (Chenopodium album); assay: Test B postemergence; details: Rate 125 g/ha, scale 0 to 100, 0 no effect, 100 complete control
In short: as §1

[9] = tested on: morning glory (Ipomoea hederacea); assay: Test B postemergence; details: Rate 125 g/ha, scale 0 to 100, 0 no effect, 100 complete control
In short: as §1

[10] = tested on: pigweed (Amaranthus retroflexus); assay: Test B postemergence; details: Rate 125 g/ha, scale 0 to 100, 0 no effect, 100 complete control
In short: as §1

[11] = tested on: velvetleaf (Abutilon theophrasti); assay: Test B postemergence; details: Rate 125 g/ha, scale 0 to 100, 0 no effect, 100 complete control
In short: as §1

[12] = tested on: wheat (Triticum aestivum); assay: Test B postemergence; details: Rate 125 g/ha, scale 0 to 100, 0 no effect, 100 complete control
In short: as §1

wild oat (Avena fatua) = assay: Test B postemergence; details: Rate 125 g/ha, scale 0 to 100, 0 no effect, 100 complete control
In short: as §1

[13] = tested on: Surinam grass (Brachiaria decumbens); assay: Test B preemergence
In short: as §1

[14] = tested on: barnyardgrass (Echinochloa crus-galli); assay: Test B preemergence
In short: as §1

[15] = tested on: cocklebur (Xanthium strumarium); assay: Test B preemergence
In short: as §1

corn (Zea mays) [16] = assay: Test B preemergence
In short: as §1

[17] = tested on: crabgrass (Digitaria sanguinalis); assay: Test B preemergence
In short: as §1

[18] = tested on: giant foxtail (Setaria faberii); assay: Test B preemergence
In short: as §1

[19] = tested on: lambsquarters (Chenopodium album); assay: Test B preemergence
In short: as §1

[20] = tested on: morning glory (Ipomoea hederacea); assay: Test B preemergence
In short: as §1

[21] = tested on: pigweed (Amaranthus retroflexus); assay: Test B preemergence
In short: as §1

rice (Oryza saliva) = assay: Test B preemergence
In short: as §1

[22] = tested on: velvetleaf (Abutilon theophrasti); assay: Test B preemergence
In short: as §1

[23] = tested on: barnyardgrass (Echinochloa crus-galli); assay: Test C flooded paddy test; details: for Plant response rating, Barnyardgrass: scale 0 to 100 (0 no effect, 100 complete control)
In short: (§2)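 Greenhouse-maintained for 12 to 14 days after treatment, the paddy plants (2-leaf stage at application) were scored visually against controls. A score of 0 denotes no effect and a score of 100 denotes complete control.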

[24] = tested on: duck salad (Heteranthera limosa); assay: Test C flooded paddy test; details: for Plant response rating, Ducksalad: scale 0 to 100 (0 no effect, 100 complete control)
In short: as §2

Sunflower = assay: Test C preemergence; details: Rate 500 g/ha, visual evaluation after 12 to 14 days
[25] = Rate 125 g/ha, scale 0 to 100, 0 no effect, 100 complete control
[26] = Rate 500 g/ha, scale 0 to 100, 0 is no effect, 100 is complete control, 13 to 15 days
[27] = Preemergence, Rate 500 g/ha, scale 0 to 100, 0 no effect, 100 complete control
[28] = preemergence, Rate 125 g/ha, scale of 0 to 100 where 0 is no effect and 100 is complete control, 13 to 15 days
[29] = Flooded Paddy, Rate 500 g/ha, scale 0 to 100, 0 no effect, 100 complete control
[30] = flooded paddy test, Rate 125 g/ha
[31] = flooded paddy test, Rate 250 g/ha
[32] = flooded paddy test, Rate 62 g/ha, visually evaluated after 12 to 14 days, 0 = no effect, 100 = complete control

CCC(C)c1ccn(C2OCN(c3cccc(OC(F)F)c3)C2=O)n1 (stereo not shown) [Compound 134]
Plant response rating, Surinam grass [1, 25]: 20 | Plant response rating, Surinam grass [1, 26]: 60 | Plant response rating, Barnyardgrass [2, 25]: 90 | Plant response rating, Barnyardgrass [2, 26]: 100 | Plant response rating, Blackgrass [3, 25]: 0 | Plant response rating, Blackgrass [3, 26]: 0 | Plant response rating, Cocklebur [4, 25]: 30 | Plant response rating, Cocklebur [4, 26]: 30 | Plant response rating, Corn (corn (Zea mays) [5]; [25]): 0 | Plant response rating, Corn (corn (Zea mays) [5]; [26]): 20 | Plant response rating, Crabgrass [6]: 20 | Plant response rating, Foxtail, Giant [7]: 30 | Plant response rating, Lambsquarters [8]: 100 | Plant response rating, Morningglory [9]: 10 | Plant response rating, Pigweed [10]: 60 | Plant response rating, Velvetleaf [11]: 0 | Plant response rating, Wheat [12]: 0 | Plant response rating, Wild Oat (wild oat (Avena fatua)): 0 | Plant response rating, Surinam grass [13, 27]: 100 | Plant response rating, Surinam grass [13, 28]: 90 | Plant response rating, Barnyardgrass [14, 27]: 100 | Plant response rating, Barnyardgrass [14, 28]: 100 | Plant response rating, Cocklebur [15, 27]: 0 | Plant response rating, Cocklebur [15, 28]: 0 | Plant response rating, Corn (corn (Zea mays) [16]; [27]): 90 | Plant response rating, Corn (corn (Zea mays) [16]; [28]): 20 | Plant response rating, Crabgrass [17, 27]: 100 | Plant response rating, Crabgrass [17, 28]: 100 | Plant response rating, Foxtail, Giant [18, 27]: 100 | Plant response rating, Foxtail, Giant [18, 28]: 100 | Plant response rating, Lambsquarters [19, 27]: 100 | Plant response rating, Lambsquarters [19, 28]: 100 | Plant response rating, Morningglory [20, 27]: 0 | Plant response rating, Morningglory [20, 28]: 0 | Plant response rating, Pigweed [21, 27]: 100 | Plant response rating, Pigweed [21, 28]: 100 | Plant response rating, Rice (rice (Oryza saliva); [27]): 100 | Plant response rating, Rice (rice (Oryza saliva); [28]): 100 | Plant response rating, Velvetleaf [22, 27]: 0 | Plant response rating, Velvetleaf [22, 28]: 0 | Barnyardgrass plant response rating [23, 29]: 100 | Plant response rating, Barnyardgrass [23, 30]: 100 | Plant response rating, Barnyardgrass [23, 31]: 100 | Plant response rating (scale 0 to 100), Barnyardgrass [23, 32]: 100 | Ducksalad plant response rating [24, 29]: 100 | Plant response rating, Ducksalad [24, 30]: 90 | Plant response rating, Ducksalad [24, 31]: 100 | Plant response rating (scale 0 to 100), Ducksalad [24, 32]: 60 | Plant response rating (0 to 100), Sunflower (Sunflower): 20
